Reference: BindingDB's records for doi:10.1016/s0960-894x(98)00253-4 (San Francisco State University, 1999)

Target: T1, Gamma-glutamyl hydrolase (Homo sapiens, UniProt Q92820)
T1 sequence (Q92820 whole entry): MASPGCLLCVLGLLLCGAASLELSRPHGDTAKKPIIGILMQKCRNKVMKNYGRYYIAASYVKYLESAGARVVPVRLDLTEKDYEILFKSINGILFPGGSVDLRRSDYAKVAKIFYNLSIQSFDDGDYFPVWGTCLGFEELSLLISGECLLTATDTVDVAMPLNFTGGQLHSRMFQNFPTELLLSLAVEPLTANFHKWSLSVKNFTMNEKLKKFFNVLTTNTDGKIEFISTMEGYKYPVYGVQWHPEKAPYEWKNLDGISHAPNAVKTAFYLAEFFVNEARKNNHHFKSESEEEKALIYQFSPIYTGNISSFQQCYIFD
Assay: ChEBML_68750
Settings: read-out: kon (M-1-s-1)
Method: Compound was tested for inhibitory potency against gamma-Glutamyl Hydrolase.

| SMILES | kon [M⁻¹ s⁻¹] |
| --- | --- |
| COP(=O)(N[C@@H](CCC(=O)O)C(=O)O)c1ccccc1 (some centres not stated) | 4400 |
| COP(=O)(N[C@@H](CCC(=O)O)C(=O)O)OC | 177000 |
